From paper PMC7619385 (ACS infectious diseases, 2025) come the findings set out here.

The structures appear in SMILES notation. Read-outs that look alike come from different tables or passages of the source.

One experiment addresses NLuc::LmxCLK1 (Leishmania mexicana, UniProt E9AMP2). Nature of the experiment: cell-based. The format is cell-based. The note with it: for receptor occupancy at 10 µM: read-out: Target occupancy Average. A digest of the protocol:
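NanoBRET tracer displacement in live cells expressing NLuc-tagged CLK1, test compounds at 10 µM fixed, 1% DMSO final. Acceptor/donor emission (610/460 nm) ratio gives mBRET, converted to blank-corrected probe occupancy (%); probe KD from single-site saturation binding fits.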

Experiment [1] concerns the target T1, LmxCLK1 (Leishmania mexicana, UniProt E9AMP2).
T1 sequence (E9AMP2 1-422): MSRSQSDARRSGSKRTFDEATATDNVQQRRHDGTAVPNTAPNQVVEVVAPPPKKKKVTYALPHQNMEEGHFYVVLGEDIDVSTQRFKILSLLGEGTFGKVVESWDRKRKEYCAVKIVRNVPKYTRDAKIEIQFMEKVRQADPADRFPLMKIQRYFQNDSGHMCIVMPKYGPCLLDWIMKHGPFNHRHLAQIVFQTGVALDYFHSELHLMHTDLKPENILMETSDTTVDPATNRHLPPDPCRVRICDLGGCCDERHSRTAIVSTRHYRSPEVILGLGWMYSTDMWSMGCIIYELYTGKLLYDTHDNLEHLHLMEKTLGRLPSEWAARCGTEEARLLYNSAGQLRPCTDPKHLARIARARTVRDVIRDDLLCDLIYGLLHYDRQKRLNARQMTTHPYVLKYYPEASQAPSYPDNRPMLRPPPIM
In words: biochemical. Type of experiment: binding.

In experiment [2] the target is T1, LmxCLK1. In words: HTRF (TR-FRET) enzymatic inhibition assay. The format is biochemical. The protocol:
The enzymatic activity of full-length LmxCLK1 was monitored using a homogenous time-resolved fluorescence (HTRF)-based assay (HTRF KinEASE-STK S3 kit, Cisbio - catalog #62ST3PEC). For IC50 value determination, the data from two independent experiments performed in duplicate were fitted to the sigmoidal dose-response (variable slope) equation available in GraphPad Prism (v. 9.1.0). Detailed information for IC50 determination can be found in the Supplementary Information. […]
min at 4 °C. The supernatants were loaded onto an immobilized metal affinity chromatography (IMAC) […]
column (5 mL HisTrap FF Crude, GE Healthcare) and washed in Binding Buffer containing 30 mM imidazole.
Proteins were eluted in Binding Buffer with 300 mM imidazole. To remove the N-terminal 6xHis-tag […]
introduced during cloning (see above), proteins were incubated with TEV protease during dialysis […]
overnight at 4 °C into Gel Filtration Buffer (20 mM HEPES, 500 mM NaCl, 5% glycerol, 0.5 mM TCEP).
Recombinant proteins were further purified using reverse affinity chromatography on Ni-Sepharose […]
followed by gel filtration (Superdex 200 16/60, GE Healthcare), and concentrated using 10 kDa molecular […]
weight cut-off centrifugal concentrators (Millipore). LmxCLK1 (CQMED clone ID LmxCLK1-cb001) and […]
NLuc-LmxCLK1 (CQMED clone ID LmxCLK1-cb021) proteins were stored at -80 °C for in vitro biochemical […]
assays at 0.5 mg/mL and 0.7 mg/mL, respectively, measured by UV absorbance with a NanoDrop […]
spectrophotometer (Thermo Scientific), using the calculated molecular weight and estimated extinction […]
Purified proteins were further analyzed by LC-ESI-MS in a XEVO G2 Sx Q-ToF (Waters). Expected intact […]
masses for LmxCLK1 (CQMED clone ID LmxCLK1-cb001) and NLuc-LmxCLK1 (CQMED clone ID LmxCLK1- […]
cb021) were: 48,791.14 Da and 68,411.71 Da, respectively.
We monitored the activity of recombinantly produced full-length LmxCLK1 (CQMED clone ID LmxCLK1- […]
cb001) using a commercially-available homogenous time-resolved fluorescence (HTRF)-based assay (HTRF […]
KinEASE-STK S3 kit, Cisbio - catalog #62ST3PEC). Assay development included establishing reaction […]
parameters (optimal enzyme concentration, ATP concentration and reaction time).
(15-point, 3-fold serial dilution and a highest final assay concentration of 10 µM) prior to transfer (100 nL) […]
to a black, 384-well, round bottom, low-volume plate (Corning catalog #4514) containing a mixture of […]
LmxCLK1 and peptide substrate in kinase buffer using an automated liquid transferring system (CYBIO […]
FeliX®, Analytik Jena, Jena, Germany). […]
started by the addition of ATP and allowed to proceed for 75 min at 30 °C. Final concentrations for reaction […]
components were: 6 nM LmxCLK1, 66 µM ATP (10× KM,ATP), 1 µM peptide (STK Substrate 3-biotin, Cisbio).
All components were prepared in 1× Enzymatic Buffer (Cisbio) supplemented with 5 mM MgCl2, 1 mM […]
DTT, 0.01% Tween-20. The reaction was stopped by the addition of Detection Buffer containing EDTA, […]
Fluorescence signal was measured using a CLARIOstar microplate reader (BMG LABTECH) with excitation […]
at 330 nm, emission at 665 nm (acceptor) and 620 nm (donor), integration delay 60 μs and integration […]
time 400 μs. All reactions were done in duplicate and two independent experiments were performed.
Enzyme activity was expressed as the background-corrected HTRF ratio of the acceptor and donor […]
emission signals according to equation [1]:
(also on this page, place not known: imi dazole. Ni -Sepharose background -corrected (665/620)=3Acceptor!!"#$ −backgroundD.10,000 Downloaded from http://pubs.acs.org/aidcbc/article-supplement/3662943/pdf/id5c00610_si_001/ by guest on 07 August 2026) […]
where background is the background fluorescence obtained in the absence of enzyme (blank).
To determine IC50 values, the background-corrected HTRF ratio was plotted as a function of test

[3] abbreviates: purified LmxCLK1, 30-min pre-incubation, 66 µM ATP, read-out: IC50 enzymatic inhibition of LmxCLK1.

Broadly, the IC50 is the point on the concentration scale where inhibition reaches its midpoint. By ΔTm is commonly meant the shift of the melting midpoint relative to a reference. For the compound `C=CC(=O)Nc1cccc(Oc2nc(Nc3ccc(N4CCN(C)CC4)cc3)ncc2Cl)c1` [WZ3146], the IC50 turned out to be 13600 nM at NLuc::LmxCLK1 and 340 nM on LmxCLK1 [2] (setting [3]). The receptor occupancy at 10 µM on NLuc::LmxCLK1 was found to be 35.2 ± 3.3%. For the same compound, the ΔTm at 10 µM was 14.3 ± 0.1 °C on LmxCLK1 [1] (read-out: ΔTm Average), 14.2 °C on LmxCLK1 [1] (read-out: ΔTm Run 1) and 14.4 °C at LmxCLK1 [1] (read-out: ΔTm Run 2).
For the compound `Cc1ccc(C(=O)Nc2ccc(CN3CCN(C)CC3)c(C(F)(F)F)c2)cc1C#Cc1cnc2[nH]ncc2c1` [GZD824], the IC50 on NLuc::LmxCLK1 was found to be 4600 nM; against LmxCLK1 [2] (IC50 enzymatic inhibition of LmxCLK1, purified LmxCLK1, 30-min pre-incubation, 66 µM ATP) it was 29.9 nM. In addition, at NLuc::LmxCLK1, the receptor occupancy at 10 µM is 46.5 ± 3.2%. In addition, the ΔTm at 10 µM is 17.1 °C at LmxCLK1 [1] (DSF, 10 µM compound, 2 µM LmxCLK1, Run 1, read-out: ΔTm Run 1); 17.7 °C at LmxCLK1 [1] (DSF, 10 µM compound, 2 µM LmxCLK1, Run 2, read-out: ΔTm Run 2); 17.4 ± 0.3 °C on LmxCLK1 [1] (DSF, 10 µM compound, 2 µM LmxCLK1, mean of two runs, read-out: ΔTm Average).
On to `C=CC(=O)Nc1cccc(Sc2nc(Nc3ccc(N4CCN(C)CC4)cc3)ncc2Cl)c1` [WZ8040], for which the IC50 at NLuc::LmxCLK1 stood at 2900 nM; on LmxCLK1 [2] (pre-incubation 0 min, read-out: Time-dependent IC50), 1660 nM; on LmxCLK1 [2] (pre-incubation 5 min, read-out: Time-dependent IC50), 940 nM; at LmxCLK1 [2] (pre-incubation 10 min, read-out: Time-dependent IC50), 911 nM; on LmxCLK1 [2] (pre-incubation 15 min, read-out: Time-dependent IC50), 862 nM; at LmxCLK1 [2] (pre-incubation 30 min, read-out: Time-dependent IC50) it was 759 nM. The IC50 on LmxCLK1 [2] (setting [3]) was 204 nM. In addition, at NLuc::LmxCLK1, the receptor occupancy at 10 µM was found to be 60.8 ± 0.8%. In addition, the results for the ΔTm at 10 µM at LmxCLK1 [1] (read-out: ΔTm Average), on LmxCLK1 [1] (read-out: ΔTm Run 1) and on LmxCLK1 [1] (read-out: ΔTm Run 2) were 14.8 ± 0.1 °C, 14.7 °C and 15 °C, respectively.
